Data taken from US20230279025A1, “KRAS G12D INHIBITORS” (Mirati Therapeutics, Inc., priority 2020, published 2023).
Counter-ions that a name gives are not always drawn.

Molecular target: KRas G12D (Homo sapiens (Human), UniProt P01116, G12D)
Assay: KRas G12D Binding Assay (TR-FRET displacement of Cy5 labelled tracer)
Details: GDP-loaded KRAS G12D (amino acids 1:169), 60 minute incubation at 22° C.
Procedure: After a 60 minute incubation at 22° C., the reaction was measured using a PerkinElmer EnVision multimode plate reader via TR-FRET dual wavelength detection, and the percent of control (POC) calculated using a ratiometric emission factor. […] The POC values were fit to a 4-parameter logistic curve and the IC50 value was determined as the concentration where the curve crosses 50 POC.
ND stands for “not determined.”

KRas G12D, sequence (P01116 other isoform, or with tags, fused parts or gaps G12D): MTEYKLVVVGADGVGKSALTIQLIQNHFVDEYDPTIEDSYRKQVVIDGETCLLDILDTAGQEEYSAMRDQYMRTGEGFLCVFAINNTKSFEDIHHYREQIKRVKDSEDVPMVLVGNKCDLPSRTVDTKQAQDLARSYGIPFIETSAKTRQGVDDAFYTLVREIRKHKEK

SMILES	IC50 [nM]
Oc1cc(-c2ncc3c(N4CC5CCC(C4)N5)nc(OCC45CCCCN4CCC5)nc3c2F)c2ccccc2c1 (stereo not drawn) [Example 463, 4-(4-(3,8-diazabicyclo[3.2.1]octan-3-yl)-8-fluoro-2-((octahydroindolizin-8a-yl)methoxy)pyrido[4,3-d]pyrimidin-7-yl)naphthalen-2-ol]	0.012
C=Cc1cccc2cccc(-c3ncc4c(N5C[C@H]6CC[C@@H](C5)N6)nc(OC[C@@H]5CCCN5C)nc4c3F)c12 [Example 201, 4-((1R,5S)-3,8-diazabicyclo[3.2.1]octan-3-yl)-8-fluoro-2-(((S)-1-methylpyrrolidin-2-yl)methoxy)-7-(8-vinyInaphthalen-1-yl)pyrido[4,3-d]pyrimidine]	70.2
Fc1c(-c2ccccc2C2CC2)ncc2c(N3C[C@H]4CC[C@@H](C3)N4)nc(OCC34CCCN3CCC4)nc12 [Example 297]	88.9
NC(=O)Cc1cccc2cccc(-c3ncc4c(N5C[C@H]6CC[C@@H](C5)N6)nc(OCC56CCCN5CCC6)nc4c3F)c12 [Example 240, 2-(8-(4-((1R,5S)-3,8-diazabicyclo[3.2.1]octan-3-yl)-8-fluoro-2-((tetrahydro-1H-pyrrolizin-7a(5H)-yl)methoxy)pyrido[4,3-d]pyrimidin-7-yl)naphthalen-1-yl)acetamide]	315
Nc1cccc(F)c1-c1ncc2c(N3C[C@H]4CC[C@@H](C3)N4)nc(OCC34CCCN3CCC4)nc2c1F [Example 265, 2-(4-((1R,5S)-3,8-diazabicyclo[3.2.1]octan-3-yl)-8-fluoro-2-((hexahydro-1H-pyrrolizin-7a-yl)methoxy)pyrido[4,3-d]pyrimidin-7-yl)-3-fluoroaniline]	794
O=C(OC[C@H]1CC[C@@]2(COc3nc(N4CC5CCC(C4)N5)c4cnc(-c5cccc6cccc(Cl)c56)c(F)c4n3)CCCN12)N1CCCC1 [Example 443, ((3R,7aR)-7a-(((4-(3,8-diazabicyclo[3.2.1]octan-3-yl)-7-(8-chloronaphthalen-1-yl)-8-fluoropyrido[4,3-d]pyrimidin-2-yl)oxy)methyl)hexahydro-1H-pyrrolizin-3-yl)methyl pyrrolidine-1-carboxylate]	3.2
O=Cc1cc(CCOc2nc(N3C[C@H]4CC[C@@H](C3)N4)c3cnc(-c4cccc5cccc(Cl)c45)c(F)c3n2)ccc1O [Example 62, 5-(2-((4-((1R,5S)-3,8-diazabicyclo[3.2.1]octan-3-yl)-7-(8-chloronaphthalen-1-yl)-8-fluoropyrido[4,3-d]pyrimidin-2-yl)oxy)ethyl)-2-hydroxybenzaldehyde]	8410
Fc1cccc(-c2ncc3c(N4C[C@H]5CC[C@@H](C4)N5)nc(OCC45CCCN4CCC5)nc3c2F)c1OC(F)F [Example 302, 4-((1R,5S)-3,8-diazabicyclo[3.2.1]octan-3-yl)-7-(2-(difluoromethoxy)-3-fluorophenyl)-8-fluoro-2-((hexahydro-1H-pyrrolizin-7a-yl)methoxy)pyrido[4,3-d]pyrimidine]	43.6
Fc1c(-c2c(C(F)(F)F)ccc3[nH]ncc23)ncc2c(N3CC4CCC(C3)N4)nc(OCC34CCCN3C[C@H](F)C4)nc12 (mixture of isomers) [Example 343, 4-((1R,5S)-3,8-diazabicyclo[3.2.1]octan-3-yl)-8-fluoro-2-((2-fluorotetrahydro-1H-pyrrolizin-7a(5H)-yl)methoxy)-7-(5-(trifluoromethyl)-1H-indazol-4-yl)pyrido[4,3-d]pyrimidine (racemic, trans)]	10.4
Oc1cc(-c2ncc3c(N4C[C@H]5CC[C@@H](C4)N5)nc(OCC45CCCN4CCC5)nc3c2F)c2c(Cl)cccc2c1 [Example 36, 4-(4-((1R,5S)-3,8-diazabicyclo[3.2.1]octan-3-yl)-8-fluoro-2-((tetrahydro-1H-pyrrolizin-7a(5H)-yl)methoxy)pyrido[4,3-d]pyrimidin-7-yl)-5-chloronaphthalen-2-ol]	0.4
Fc1c(-c2cccc3ccccc23)ncc2c(N3C[C@H]4CC[C@@H](C3)N4)nc(OCC34CCCN3CCC4)nc12 [Example 186, 4-((1R,5S)-3,8-diazabicyclo[3.2.1]octan-3-yl)-8-fluoro-7-(naphthalen-1-yl)-2-((tetrahydro-1H-pyrrolizin-7a(5H)-yl)methoxy)pyrido[4,3-d]pyrimidine]	29.2
CC(C)c1ccccc1-c1ncc2c(N3CC4CCC(C3)N4)nc(OCC34CCCN3C[C@H](F)C4)nc2c1F (stereo partly drawn) [Example 348, 4-((1R,5S)-3,8-diazabicyclo[3.2.1]octan-3-yl)-8-fluoro-2-((2-fluorotetrahydro-1H-pyrrolizin-7a(5H)-yl)methoxy)-7-(2-isopropylphenyl)pyrido[4,3-d]pyrimidine]	15.5
Fc1ccc2cccc(-c3ncc4c(N5C[C@H]6CC[C@@H](C5)N6)nc(OC[C@@]56CCCN5C[C@H](F)C6)nc4c3F)c2c1F [Example 430, 4-((1R,5S)-3,8-diazabicyclo[3.2.1]octan-3-yl)-7-(7,8-difluoronaphthalen-1-yl)-8-fluoro-2-(((2R,7aS)-2-fluorotetrahydro-1H-pyrrolizin-7a(5H)-yl)methoxy)pyrido[4,3-d]pyrimidine]	1
Fc1c(-c2cccc3cccc(C(F)(F)F)c23)ncc2c(N3C[C@H]4CC[C@@H](C3)N4)nc(OC[C@@]34CCCN3C[C@H](F)C4)nc12 [Example 419, 4-((1R,5S)-3,8-diazabicyclo[3.2.1]octan-3-yl)-8-fluoro-2-(((2R,7aS)-2-fluorotetrahydro-1H-pyrrolizin-7a(5H)-yl)methoxy)-7-(8-(trifluoromethyl)naphthalen-1-yl)pyrido[4,3-d]pyrimidine]	50.9
C#Cc1cccc2cccc(-c3ncc4c(N5C[C@H]6CC[C@@H](C5)N6)nc(OC[C@@H]5CCCN5C)nc4c3F)c12 [Example 206, 4-((1R,5S)-3,8-diazabicyclo[3.2.1]octan-3-yl)-7-(8-ethynylnaphthalen-1-yl)-8-fluoro-2-(((S)-1-methylpyrrolidin-2-yl)methoxy)pyrido[4,3-d]pyrimidine]	5.1
Cc1ccc2[nH]ncc2c1-c1ncc2c(N3CC4CCC(C3)N4)nc(OCC34CCCN3C[C@H](F)C4)nc2c1F (mixture of isomers) [Example 331, 4-((1R,5S)-3,8-diazabicyclo[3.2.1]octan-3-yl)-8-fluoro-2-((2-fluorotetrahydro-1H-pyrrolizin-7a(5H)-yl)methoxy)-7-(5-methyl-1H-indazol-4-yl)pyrido[4,3-d]pyrimidine (racemic, trans)]	114
COCCNC(=O)O[C@@H]1C[C@@H](COc2nc(N3C[C@H]4CC[C@@H](C3)N4)c3cnc(-c4cccc5cccc(Cl)c45)c(F)c3n2)N(C)C1 [Example 280, (3R,5S)-5-(((4-((1R,5S)-3,8-diazabicyclo[3.2.1]octan-3-yl)-7-(8-chloronaphthalen-1-yl)-8-fluoropyrido[4,3-d]pyrimidin-2-yl)oxy)methyl)-1-methylpyrrolidin-3-yl (2-methoxyethyl)carbamate]	99.8
CC(C)Oc1ccccc1-c1ncc2c(N3CC4CCC(C3)N4)nc(OC[C@@]34CCCN3C[C@H](F)C4)nc2c1F (stereo in doubt) [Example 416, 4-((1R,5S)-3,8-diazabicyclo[3.2.1]octan-3-yl)-8-fluoro-2-((2-fluorotetrahydro-1H-pyrrolizin-7a(5H)-yl)methoxy)-7-(2-isopropoxyphenyl)pyrido[4,3-d]pyrimidine]	1950
Nc1ccc(CCOc2nc(N3C[C@H]4CC[C@@H](C3)N4)c3cnc(-c4cccc5cccc(Cl)c45)c(F)c3n2)cn1 [Example 141, 5-(2-((4-((1R,5S)-3,8-diazabicyclo[3.2.1]octan-3-yl)-7-(8-chloronaphthalen-1-yl)-8-fluoropyrido[4,3-d]pyrimidin-2-yl)oxy)ethyl)pyridin-2-amine]	891
OCC12CCCN1CC(Oc1nc(N3C[C@H]4CC[C@@H](C3)N4)c3cnc(-c4cccc5cccc(Cl)c45)c(F)c3n1)C2 (stereo partly drawn) [Example 222, (2-((4-((1R,5S)-3,8-diazabicyclo[3.2.1]octan-3-yl)-7-(8-chloronaphthalen-1-yl)-8-fluoropyrido[4,3-d]pyrimidin-2-yl)oxy)tetrahydro-1H-pyrrolizin-7a(5H)-yl)methanol bis-TFA salt]	1130
CN1CCC[C@H]1COc1nc(N2CC3CCC(C(N)=O)(C2)N3)c2cnc(-c3cc(O)cc4ccccc34)c(F)c2n1 (stereo partly drawn) [Example 159, 3-(8-fluoro-7-(3-hydroxynaphthalen-1-yl)-2-(((S)-1-methylpyrrolidin-2-yl)methoxy)pyrido[4,3-d]pyrimidin-4-yl)-3,8-diazabicyclo[3.2.1]octane-1-carboxamide bis(2,2,2-trifluoroacetate)]	331
CCc1cccc2cc(O)cc(-c3ncc4c(N5CC6CCC(C5)N6)nc(OC[C@]56CCCN5[C@@H](COC(=O)N(C)C)CC6)nc4c3F)c12 [Example 434, 7a-(((4-((1R,5S)-3,8-diazabicyclo[3.2.1]octan-3-yl)-7-(8-ethyl-3-hydroxynaphthalen-1-yl)-8-fluoropyrido[4,3-d]pyrimidin-2-yl)oxy)methyl)hexahydro-1H-pyrrolizin-3-yl)methyl dimethyl carbamate]	0.7
Fc1c(-c2cccc3c2OC(F)(F)O3)ncc2c(N3C[C@H]4CC[C@@H](C3)N4)nc(OCC34CCCN3CCC4)nc12 [Example 196, 4-((1R,5S)-3,8-diazabicyclo[3.2.1]octan-3-yl)-7-(2,2-difluorobenzo[d][1,3]dioxol-4-yl)-8-fluoro-2-((tetrahydro-1H-pyrrolizin-7a(5H)-yl)methoxy)pyrido[4,3-d]pyrimidine]	467
CC(C)c1c(F)cc(O)cc1-c1ncc2c(N3C[C@H]4CC[C@@H](C3)N4)nc(OC[C@@]34CCCN3C[C@H](F)C4)nc2c1F [Example 290, 3-(4-((1R,5S)-3,8-diazabicyclo[3.2.1]octan-3-yl)-8-fluoro-2-(((2R,7aS)-2-fluorotetrahydro-1H-pyrrolizin-7a(5H)-yl)methoxy)pyrido[4,3-d]pyrimidin-7-yl)-5-fluoro-4-isopropylphenol]	2.1
